Molecules are shown by their SMILES.

For the assay, the system named is MES-SA. The experiment in a line: Inhibition of compound against MES-SA/DX5 cell line was determined using P-glycoprotein assay. It counts as functional, Homo sapiens.
`C=CC1CN2CCC1CC2C(=O)c1ccnc2ccc(OC)cc12` (stereo unspecified): the “log10 % Pgp inhibition vs cyclosporin A” value came out at 1.26. For the compound `CC(=O)c1ccc2c(c1)N(CCCN(C)C)c1ccccc1S2` [ACEPROMAZINE], the “log10 % Pgp inhibition vs cyclosporin A” value was 0.8. Under `CCCCc1oc2ccccc2c1C(=O)c1cc(I)c(OCCN(CC)CC)c(I)c1` [AMIODARONE] stands 1.46; under `CN1CCCC(n2nc(Cc3ccc(Cl)cc3)c3ccccc3c2=O)CC1` (stereo unspecified) [AZELASTINE], 1.75; under `CCCCOc1cc(C(=O)OCCN(CC)CC)ccc1N` [BENOXINATE], 0.84. Turning to `CC(C)COCC(CN(Cc1ccccc1)c1ccccc1)N1CCCC1` (stereo unspecified) [BEPRIDIL], the “log10 % Pgp inhibition vs cyclosporin A” value is recorded as 1.56. `CN(C)CCOC(C)(c1ccccc1)c1ccc(Cl)cc1` (stereo unspecified) [CHLORPHENOXAMINE]: the “log10 % Pgp inhibition vs cyclosporin A” value stood at 0.91.

For the compound `CN(C)CC/C=C1/c2ccccc2Sc2ccc(Cl)cc21` [CHLORPROTHIXENE], the “log10 % Pgp inhibition vs cyclosporin A” value stood at 1.27. Under `CC(C)/N=c1\cc2n(-c3ccc(Cl)cc3)c3ccccc3nc-2cc1Nc1ccc(Cl)cc1` [CLOFAZIMINE] stands 1.8; under `COc1ccc([C@@H]2Sc3ccccc3N(CCN(C)C)C(=O)[C@@H]2OC(C)=O)cc1` [DILTIAZEM], 1.18; under `CC(C)(C)c1ccc(C(=O)CCCN2CCC(OC(c3ccccc3)c3ccccc3)CC2)cc1` [EBASTINE], 1.76.

As to `CC[C@H]1CN2CCc3cc(OC)c(OC)cc3[C@@H]2C[C@@H]1C[C@H]1NCCc2cc(OC)c(OC)cc21` [EMETINE], the “log10 % Pgp inhibition vs cyclosporin A” value was 0.88. With `OCCN1CCN(CCCN2c3ccccc3Sc3ccc(C(F)(F)F)cc32)CC1` [FLUPHENAZINE], the “log10 % Pgp inhibition vs cyclosporin A” value amounted to 1.4. Regarding `CN(C)C(=O)C(CCN1CCC(O)(c2ccc(Cl)cc2)CC1)(c1ccccc1)c1ccccc1` [LOPERAMIDE], the “log10 % Pgp inhibition vs cyclosporin A” value is 1.58. Under `C[C@H]1C[C@H]2[C@@H]3CCC4=CC(=O)C=C[C@]4(C)[C@H]3C(=O)C[C@]2(C)[C@@]1(O)C(=O)CO` [MEPREDNISONE] stands 0.86; under `CCc1nn(CCCN2CCN(c3cccc(Cl)c3)CC2)c(=O)n1CCOc1ccccc1` [NEFAZODONE], 1.83; under `CCN(CC)CC#CCOC(=O)C(O)(c1ccccc1)C1CCCCC1` (stereo unspecified) [OXYBUTYNIN], 1.12.

Regarding `Cc1nc2sccn2c(=O)c1CCN1CCC(=C(c2ccc(F)cc2)c2ccc(F)cc2)CC1` [RITANSERIN], the “log10 % Pgp inhibition vs cyclosporin A” value was determined as 1.69.

`OCc1cc(C(O)CNCCCCCCOCCCCc2ccccc2)ccc1O` (stereo unspecified) [SALMETEROL]: the “log10 % Pgp inhibition vs cyclosporin A” value was 0.83.

Turning to `CC(C)(C)c1ccc(C(O)CCCN2CCC(C(O)(c3ccccc3)c3ccccc3)CC2)cc1` (stereo unspecified) [TERFENADINE], the “log10 % Pgp inhibition vs cyclosporin A” value is given as 1.65. Consider `CCN(CC)C(=O)N[C@H]1C[C@@H]2c3cccc4[nH]cc(c34)C[C@H]2N(C)C1` [TERGURIDE], for which the “log10 % Pgp inhibition vs cyclosporin A” value was 1.

Turning to `CCSc1ccc2c(c1)N(CCCN1CCN(C)CC1)c1ccccc1S2` [THIETHYLPERAZINE], the “log10 % Pgp inhibition vs cyclosporin A” value came to 1.26. On to `CSc1ccc2c(c1)N(CCC1CCCCN1C)c1ccccc1S2` (stereo unspecified) [THIORIDAZINE], for which the “log10 % Pgp inhibition vs cyclosporin A” value is on record as 1.65. For `CN1CCN(CC/C=C2/c3ccccc3Sc3ccc(S(=O)(=O)N(C)C)cc32)CC1` [THIOTHIXENE], the “log10 % Pgp inhibition vs cyclosporin A” value is recorded as 1.23. Under `CCC(COC(=O)c1cc(OC)c(OC)c(OC)c1)(c1ccccc1)N(C)C` (stereo unspecified) [TRIMEBUTINE] stands 1.75. `COc1ccc(CCN(C)CCCC(C#N)(c2ccc(OC)c(OC)c2)C(C)C)cc1OC` (stereo unspecified) [VERAPAMIL]: the “log10 % Pgp inhibition vs cyclosporin A” value turned out to be 1.63.

These data come from ChEMBL document CHEMBL1143605, “A pharmacophore hypothesis for P-glycoprotein substrate recognition using GRIND-based 3D-QSAR” (2005).
